Test [1] deals with Gamma-secretase. Kind of test: Inhibitory activity against Gamma-secretase in detergent-solubilized HeLa cell membranes with recombinant APP-based substrate.
In test [2] the target is Gamma-secretase. Kind of test: Inhibitory activity against Gamma-secretase from APP-transfected CHO cells. The class given is functional, cell-based, Homo sapiens.

In the case of `CC[C@H](C)[C@H](NC(=O)[C@@H](NC(=O)[C@@H](NC(=O)OC(C)(C)C)C(C)C)C(C)C)C(=O)NC(C)(C)C(=O)N[C@H](C(=O)N[C@H](C(=O)NC(C)(C)C(=O)N[C@H](C(=O)N[C@H](C(=O)NC(C)(C)C(=O)OC)[C@@H](C)CC)C(C)C)C(C)C)[C@@H](C)OCc1ccccc1`, the IC50 (in general, the point on the concentration scale where inhibition reaches its midpoint) on Gamma-secretase [1] was determined as 10000 nM.
Turning to `CC[C@@H](C)[C@@H](NC(=O)[C@H](NC(=O)[C@H](NC(=O)OC(C)(C)C)C(C)C)C(C)C)C(=O)NC(C)(C)C(=O)N[C@@H](C(=O)N[C@@H](C(=O)NC(C)(C)C(=O)N[C@@H](C(=O)N[C@@H](C(=O)NC(C)(C)C(=O)OC)[C@H](C)CC)C(C)C)C(C)C)[C@H](C)OCc1ccccc1`, the IC50 at Gamma-secretase [1] came to 25 nM.
For the compound `CC[C@@H](C)[C@@H](NC(=O)[C@H](NC(=O)[C@H](NC(=O)C(C)(C)NC(=O)CNC(=O)[C@H](NC(=O)C(C)(C)NC(=O)[C@@H](CC(C)C)NC(=O)OC(C)(C)C)C(C)C)C(C)C)C(C)C)C(=O)NC(C)(C)C(=O)N[C@@H](C(=O)N[C@@H](C(=O)NC(C)(C)C(=O)N[C@@H](C(=O)N[C@@H](C(=O)NC(C)(C)C(=O)OC)[C@H](C)CC)C(C)C)C(C)C)[C@H](C)OCc1ccccc1`, the concentration for half-maximal inhibition (IC50) at Gamma-secretase [1] turned out to be 16 nM.
In the case of `CC[C@H](C)[C@H](NC(=O)[C@@H](NC(=O)[C@@H](NC(=O)C(C)(C)NC(=O)OC(C)(C)C)C(C)C)C(C)C)C(=O)NC(C)(C)C(=O)N[C@H](C(=O)N[C@H](C(=O)NC(C)(C)C(=O)N[C@H](C(=O)N[C@H](C(=O)NC(C)(C)C(=O)OC)[C@@H](C)CC)C(C)C)C(C)C)[C@@H](C)OCc1ccccc1`, the half-maximal inhibitory concentration (IC50) on Gamma-secretase [1] was determined as 3100 nM.
On to `CC[C@@H](C)[C@@H](NC(=O)[C@H](NC(=O)[C@H](NC(=O)C(C)(C)NC(=O)CNC(=O)[C@H](NC(=O)OC(C)(C)C)C(C)C)C(C)C)C(C)C)C(=O)NC(C)(C)C(=O)N[C@@H](C(=O)N[C@@H](C(=O)NC(C)(C)C(=O)OC)C(C)C)[C@H](C)OCc1ccccc1`, for which, on Gamma-secretase [1], the IC50 came to 90 nM.
For the compound `CC[C@@H](C)[C@@H](NC(=O)[C@H](NC(=O)[C@H](NC(=O)C(C)(C)NC(=O)CNC(=O)[C@H](NC(=O)C(C)(C)NC(=O)[C@@H](CC(C)C)NC(=O)CNC(=O)OC(C)(C)C)C(C)C)C(C)C)C(C)C)C(=O)NC(C)(C)C(=O)N[C@@H](C(=O)N[C@@H](C(=O)NC(C)(C)C(=O)N[C@@H](C(=O)N[C@@H](C(=O)NC(C)(C)C(=O)OC)[C@H](C)CC)C(C)C)C(C)C)[C@H](C)OCc1ccccc1`, the IC50 at Gamma-secretase [1] is 26 nM.
In the case of `CC[C@H](C)[C@H](NC(=O)[C@@H](NC(=O)[C@@H](NC(=O)C(C)(C)NC(=O)CNC(=O)[C@@H](NC(=O)OC(C)(C)C)C(C)C)C(C)C)C(C)C)C(=O)NC(C)(C)C(=O)N[C@H](C(=O)N[C@H](C(=O)NC(C)(C)C(=O)OC)C(C)C)[C@@H](C)OCc1ccccc1`, the IC50 at Gamma-secretase [1] was determined as 30000 nM.
On the same count and under the same terms, in the case of `CC[C@@H](C)[C@@H](NC(=O)[C@H](NC(=O)[C@H](NC(=O)C(C)(C)NC(=O)OC(C)(C)C)C(C)C)C(C)C)C(=O)NC(C)(C)C(=O)N[C@@H](C(=O)N[C@@H](C(=O)NC(C)(C)C(=O)N[C@@H](C(=O)N[C@@H](C(=O)NC(C)(C)C(=O)OC)[C@H](C)CC)C(C)C)C(C)C)[C@H](C)OCc1ccccc1` (single isomer, unassigned) it was 28 nM; in that of `CC[C@H](C)[C@H](NC(=O)[C@@H](NC(=O)[C@@H](NC(=O)C(C)(C)NC(=O)CNC(=O)[C@@H](NC(=O)C(C)(C)NC(=O)[C@H](CC(C)C)NC(=O)CNC(=O)OC(C)(C)C)C(C)C)C(C)C)C(C)C)C(=O)NC(C)(C)C(=O)N[C@H](C(=O)N[C@H](C(=O)NC(C)(C)C(=O)N[C@H](C(=O)N[C@H](C(=O)NC(C)(C)C(=O)OC)[C@@H](C)CC)C(C)C)C(C)C)[C@@H](C)OCc1ccccc1`, 11000 nM; in that of `CC[C@H](C)[C@H](NC(=O)[C@@H](NC(=O)[C@@H](NC(=O)C(C)(C)NC(=O)CNC(=O)[C@@H](NC(=O)C(C)(C)NC(=O)[C@H](CC(C)C)NC(=O)OC(C)(C)C)C(C)C)C(C)C)C(C)C)C(=O)NC(C)(C)C(=O)N[C@H](C(=O)N[C@H](C(=O)NC(C)(C)C(=O)N[C@H](C(=O)N[C@H](C(=O)NC(C)(C)C(=O)OC)[C@@H](C)CC)C(C)C)C(C)C)[C@@H](C)OCc1ccccc1`, 4700 nM.
Consider `CC[C@H](C)[C@H](NC(=O)[C@@H](NC(=O)[C@@H](NC(=O)C(C)(C)NC(=O)CNC(=O)OC(C)(C)C)C(C)C)C(C)C)C(=O)NC(C)(C)C(=O)N[C@H](C(=O)N[C@H](C(=O)NC(C)(C)C(=O)N[C@H](C(=O)N[C@H](C(=O)NC(C)(C)C(=O)OC)[C@@H](C)CC)C(C)C)C(C)C)[C@@H](C)OCc1ccccc1`, for which the IC50 at Gamma-secretase [1] was determined as 360 nM.
Turning to `CC[C@@H](C)[C@@H](NC(=O)[C@H](NC(=O)[C@H](NC(=O)C(C)(C)NC(=O)CNC(=O)OC(C)(C)C)C(C)C)C(C)C)C(=O)NC(C)(C)C(=O)N[C@@H](C(=O)N[C@@H](C(=O)NC(C)(C)C(=O)N[C@@H](C(=O)N[C@@H](C(=O)NC(C)(C)C(=O)OC)[C@H](C)CC)C(C)C)C(C)C)[C@H](C)OCc1ccccc1`, the IC50 on Gamma-secretase [1] was determined as 12 nM.
In the case of `CC[C@H](C)[C@H](NC(=O)[C@@H](NC(=O)[C@@H](NC(=O)C(C)(C)NC(=O)CNC(=O)[C@@H](NC(=O)C(C)(C)NC(=O)OC(C)(C)C)C(C)C)C(C)C)C(C)C)C(=O)NC(C)(C)C(=O)N[C@H](C(=O)N[C@H](C(=O)NC(C)(C)C(=O)N[C@H](C(=O)N[C@H](C(=O)NC(C)(C)C(=O)OC)[C@@H](C)CC)C(C)C)C(C)C)[C@@H](C)OCc1ccccc1`, the IC50 at Gamma-secretase [1] is 910 nM.
With `CC[C@@H](C)[C@@H](NC(=O)[C@H](NC(=O)[C@H](NC(=O)C(C)(C)NC(=O)CNC(=O)[C@H](NC(=O)C(C)(C)NC(=O)OC(C)(C)C)C(C)C)C(C)C)C(C)C)C(=O)NC(C)(C)C(=O)N[C@@H](C(=O)N[C@@H](C(=O)NC(C)(C)C(=O)N[C@@H](C(=O)N[C@@H](C(=O)NC(C)(C)C(=O)OC)[C@H](C)CC)C(C)C)C(C)C)[C@H](C)OCc1ccccc1`, the half-maximal inhibitory concentration (IC50) on Gamma-secretase [1] came to 14 nM.
On to `CC[C@@H](C)[C@@H](NC(=O)[C@H](NC(=O)[C@H](NC(=O)C(C)(C)NC(=O)CNC(=O)[C@H](NC(=O)OC(C)(C)C)C(C)C)C(C)C)C(C)C)C(=O)NC(C)(C)C(=O)N[C@@H](C(=O)N[C@@H](C(=O)NC(C)(C)C(=O)N[C@@H](C(=O)N[C@@H](C(=O)NC(C)(C)C(=O)OC)[C@H](C)CC)C(C)C)C(C)C)[C@H](C)OCc1ccccc1`, for which the IC50 at Gamma-secretase [2] was determined as 9 nM; on Gamma-secretase [1], 0.14 nM.
In the case of `CC[C@H](C)[C@H](NC(=O)[C@@H](NC(=O)[C@@H](NC(=O)C(C)(C)NC(=O)CNC(=O)[C@@H](NC(=O)OC(C)(C)C)C(C)C)C(C)C)C(C)C)C(=O)NC(C)(C)C(=O)N[C@H](C(=O)N[C@H](C(=O)NC(C)(C)C(=O)N[C@H](C(=O)N[C@H](C(=O)NC(C)(C)C(=O)OC)[C@@H](C)CC)C(C)C)C(C)C)[C@@H](C)OCc1ccccc1`, the IC50 at Gamma-secretase [1] was determined as 780 nM.

Source of the values: ChEMBL document CHEMBL1137200, “Discovery of a Subnanomolar helical D-tridecapeptide inhibitor of gamma-secretase” (J Med Chem, 2004).
